Measured values reported in article PMC4129416, “YLT192, a Novel, Orally Active Bioavailable Inhibitor of VEGFR2 Signaling with Potent Antiangiogenic Activity and Antitumor Efficacy in Preclinical Models” (Scientific Reports, 2014).
“Also recorded” adds a separate entry of the source.

How the values were obtained:
[1] = test system: zebrafish intersegmental vessels; assay: Transgenic zebrafish (FLK-1: EGFP) embryonic angiogenesis model; format: in vivo; details: 5 μM; zebrafish embryos treated 15 hpf, imaged 30 hpf
From the text: To test the anti-angiogenesis effects of YLT192 in vivo, we used a FLK-1 promoter enhanced green fluorescent protein (EGFP) transgenic zebrafish model.
Figure 3 YLT192 inhibited angiogenesis in vivo. (A) Fluorescent images of 30 hpf zebrafish treated with vehicle or concentrations of YLT192. ISV growth was inhibited by YLT192. One representative experiment of three is shown. Data are means ± SEM (n = 10 per group), *P < 0.05, **P < 0.01. Scale bars represent 100 μm. […] Frozen sections of HCT116 tumors were tested by immunohistochemistry analysis with anti-CD31 antibody. Representative images of the tumor vasculature from vehicle and YLT192 treated mice were shown. The fields were averaged in each tumor, and the averages for each animal were used to give the final mean ± SD (n = 6 mice per group). *P < 0.05, **P < 0.01. Scale bars represent 100 μm. […] Alginate beads containing 5 × 10^4 CT26 cells were implanted s.c. into the backs of mice. Mice were then orally treated with YLT192 or vehicle once daily. Beads were surgically removed 14 days later and FITC-dextran was quantified. […] Data are means ± SD (n = 6 mice per group), *P < 0.05, **P < 0.01. Scale bars represent 500 μm.
The transgenic zebrafish (FLK-1: EGFP) was used in the experiments. The embryos were grown and maintained as described previously. […]

[2] = test system: HCT116 cells; assay: EdU incorporation assay; format: cell-based, human; details: 24 h treatment, concentration-dependent
Procedure: (§1) The proliferative inhibitory ability of YLT192 on tumor cells was investigated. […] Inhibition of cell proliferation is a possible approach for cancer treatment. EdU incorporation assay was performed to investigate the anti-proliferative effects of YLT192 against U251 and HCT116 cells.
(§2) Figure 4 Inhibitory effects of YLT192 on tumor cells. (A) YLT192 inhibited U251 and HCT116 cells proliferation. The EdU incorporation assay was conducted on U251 and HCT116 cells after treated with YLT192 for 24 hours. The EdU-positive (red fluorescent staining) cells and Hoechst staining (blue fluorescent staining) cells represented proliferating and total cells in the fluorescent images, respectively (100×). Quantification was shown on the right panels. (B) YLT192 induced apoptosis of HCT116 cells. HCT116 cells were treated with YLT192 or vehicle for 48 hours followed by flow cytometric analysis of annexin V-FITC and PI staining. The proportion of early apoptotic cells (annexin V positive) and late apoptotic cells (annexin V and PI positive cells) were shown. Typical apoptosis-related proteins caspase 3 and Bax were detected by western blot. Each has the expression of β-actin as internal control. […] U251 and HCT116 cells were treated with YLT192 or vehicle for 48 hours and the expression of protein in different signaling pathways were detected by western blot with specific antibodies. […]

[3] = test system: U251 cells; assay: EdU incorporation assay; format: cell-based, human; details: 24 h treatment, concentration-dependent
Procedure: as §1, §2

[4] = test system: VEGFR2 signaling pathway in HUVEC; assay: Western blot of VEGF-induced VEGFR2 phosphorylation and downstream signalling in HUVEC; format: cell-based, human; details: concentration-dependent
Procedure: Figure 2 Effects of YLT192 on HUVECs proliferation, migration, invasion and tube formation. […] Cells were wounded by the pipette and then treated with various concentrations of compounds for 24 hours. Migrated cells were quantified by manual counting (50×). […] The bottom chambers of the transwells were filled with 600 μL EGM2 containing various growth factors while the top chambers were seeded with 4 × 10^4 HUVECs in EBM2 and treated with different concentrations of compounds for 24 hours. Cells invaded through the membrane were stained and quantified (100×). […] HUVECs were seeded on Matrigel layer and treated with different concentrations of compounds. HUVECs tube formation was assessed 6 hours later (50×). One representative experiment of three is shown. For (A), (B) and (C), data represent the mean ± SEM of three different experiments. Each experiment was performed in duplicate.*P < 0.05, **P < 0.01. (D) YLT192 inhibited VEGF-induced phosphorylation of VEGFR2 and its downstream signal regulator p44/42 MAPK, STAT3 and AKT in HUVECs. One representative Western blot of three is presented. Each has the expression of β-actin as internal control. The full size blots were shown in the Supplemental Figure S5 online. (E) Cellular thermal shift assay showing VEGFR2 target engagement by YLT192 in intact HUVECs. One representative Western blot of two is presented. […]

Structure (SMILES): CNC(=O)c1cc(Oc2ccc(NC(=O)c3cccc(OC)c3)cc2)ccn1 [YLT192]
- formation of intersegmental vessels [1]: considerably blocked; also recorded: significantly inhibited
- percentage of proliferating cells, EdU incorporation [2]: decreased a lot
- percentage of proliferating cells, EdU incorporation [3]: decreased a lot
- VEGF-stimulated phosphorylation of VEGFR2 and downstream p44/42 MAPK, AKT, and STAT3 [4]: clearly reduced
